Measured values reported in patent US9273341B2, “Methods for treatment of bacterial infections” (THE JOHNS HOPKINS UNVIERSITY, priority 2010, dated 2016).
Converted amounts (≈) assume the structure as drawn.

Legend:
[1] = tested on: wild-type M. tuberculosis; assay: microbe, parasite or virus in culture; format: cell-based; details: Mycobacterium tuberculosis
[2] = tested on: wild-type M. tuberculosis; set-up: species or system Balb/C mice; details: mouse, in vivo

Compound | MIC [1] | bacterial burden (lung CFU) under treatment [2]
N[C@@H]1CON=C1O [D-cycloserine] | 5 µg/mL (≈ 49 µM) | –
NNC(=O)c1ccncc1 [isoniazid] | 0.03 µg/mL (≈ 0.219 µM) | similarly effective
